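Results reflect a 48-hour exposure of cells in 96-well plates to compound at five concentrations. Abbreviation: GI50, concentration required for 50% inhibition of growth.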 Activity calls are given as the source filed them. No stated cut-off is given here; in the data, active = GI50 up to about 1.1 µM and inactive = higher.
Legend:
Assay in all cases: DTP human tumour cell line panel, 48 h
HOP-62 = tested on: HOP-62
IGROV-1 = tested on: IGROV-1
CAKI-1 = tested on: CAKI-1
U-251 = tested on: U-251
HOP-92 = tested on: HOP-92
DLD-1 = tested on: DLD-1
SF-539 = tested on: SF-539
SR = tested on: SR
DMS-273 = tested on: DMS-273
TK-10 = tested on: TK-10
EKVX = tested on: EKVX
OVCAR-3 = tested on: OVCAR-3
KM-20L2 = tested on: KM-20L2
UACC-62 = tested on: UACC-62
K562 = tested on: K562
DMS-114 = tested on: DMS-114
SNB-75 = tested on: SNB-75
SNB-78 = tested on: SNB-78
SW-620 = tested on: SW-620
SN12C = tested on: SN12C
SK-OV-3 = tested on: SK-OV-3
HCT-116 = tested on: HCT-116
NCI-H460 = tested on: NCI-H460
HT-29 = tested on: HT-29
HL-60 = tested on: HL-60
SK-MEL-2 = tested on: SK-MEL-2
786-0 = tested on: 786-0
M19-MEL = tested on: M19-MEL
OVCAR-4 = tested on: OVCAR-4
CCRF-CEM = tested on: CCRF-CEM
NCI-H522 = tested on: NCI-H522
XF498 = tested on: XF498
UO-31 = tested on: UO-31
SK-MEL-28 = tested on: SK-MEL-28
MOLT-4 = tested on: MOLT-4
RXF 393 = tested on: RXF 393
NCI-H226 = tested on: NCI-H226
UACC-257 = tested on: UACC-257
A498 = tested on: A498
SK-MEL-5 = tested on: SK-MEL-5
ACHN = tested on: ACHN
A549 = tested on: A549
NCI-H23 = tested on: NCI-H23
SF-268 = tested on: SF-268
OVCAR-8 = tested on: OVCAR-8
OVCAR-5 = tested on: OVCAR-5
M14 = tested on: M14
SF-295 = tested on: SF-295
KM12 = tested on: KM12
SNB-19 = tested on: SNB-19
Malme-3M = tested on: Malme-3M
COLO 205 = tested on: COLO 205
HCT-15 = tested on: HCT-15
RPMI-8226 = tested on: RPMI-8226
LOX IMVI = tested on: LOX IMVI
LXFL 529 = tested on: LXFL 529
HCC 2998 = tested on: HCC 2998

For `CC(=O)C1CCN(c2ccccc2)C1` (stereo not drawn), the GI50 (HOP-62) was > 100 µM (inactive), the GI50 (IGROV-1) was > 100 µM (inactive) and the GI50 (CAKI-1) was > 100 µM (inactive). The GI50 (U-251) was > 100 µM (inactive), the GI50 (HOP-92) was > 100 µM (inactive) and the GI50 (DLD-1) was > 100 µM (inactive). The GI50 (SF-539) was > 100 µM (inactive), the GI50 (SR) was > 100 µM (inactive) and the GI50 (DMS-273) was > 100 µM (inactive). The GI50 (TK-10) was > 100 µM (inactive), the GI50 (EKVX) was > 100 µM (inactive) and the GI50 (OVCAR-3) was > 100 µM (inactive). For the same compound, the GI50 (KM-20L2) was > 10 µM (inactive), the GI50 (UACC-62) was > 100 µM (inactive) and the GI50 (K562) was > 100 µM (inactive). For the same compound, the GI50 (DMS-114) was > 100 µM (inactive), the GI50 (SNB-75) was > 100 µM (inactive) and the GI50 (SNB-78) was > 100 µM (inactive). For the same compound, the GI50 (SW-620) was > 100 µM (inactive), the GI50 (SN12C) was > 100 µM (inactive) and the GI50 (SK-OV-3) was > 100 µM (inactive). The GI50 (HCT-116) was > 100 µM (inactive), the GI50 (NCI-H460) was > 100 µM (inactive) and the GI50 (HT-29) was > 100 µM (inactive). For the same compound, the GI50 (HL-60) was > 100 µM (inactive), the GI50 (SK-MEL-2) was > 100 µM (inactive) and the GI50 (786-0) was > 100 µM (inactive). The GI50 (M19-MEL) was > 100 µM (inactive), the GI50 (OVCAR-4) was > 100 µM (inactive) and the GI50 (CCRF-CEM) was > 100 µM (inactive). For the same compound, the GI50 (NCI-H522) was > 100 µM (inactive), the GI50 (XF498) was > 100 µM (inactive) and the GI50 (UO-31) was > 100 µM (inactive). For the same compound, the GI50 (SK-MEL-28) was > 100 µM (inactive), the GI50 (MOLT-4) was > 100 µM (inactive) and the GI50 (RXF 393) was > 100 µM (inactive). For the same compound, the GI50 (NCI-H226) was > 100 µM (inactive), the GI50 (UACC-257) was > 100 µM (inactive) and the GI50 (A498) was > 100 µM (inactive). For the same compound, the GI50 (SK-MEL-5) was > 100 µM (inactive), the GI50 (ACHN) was > 100 µM (inactive) and the GI50 (A549) was > 100 µM (inactive). For the same compound, the GI50 (NCI-H23) was > 100 µM (inactive), the GI50 (SF-268) was > 100 µM (inactive) and the GI50 (OVCAR-8) was > 100 µM (inactive). For the same compound, the GI50 (OVCAR-5) was > 100 µM (inactive), the GI50 (M14) was > 100 µM (inactive) and the GI50 (SF-295) was > 100 µM (inactive). For the same compound, the GI50 (KM12) was > 100 µM (inactive) and the GI50 (SNB-19) was > 100 µM (inactive).
`c1ccc(C2[C@@H]3CCCc4ccccc4C3=NN2c2ccccc2)cc1` (stereo partly drawn) was tested, and the GI50 (HOP-62) was > 100 µM (inactive), the GI50 (IGROV-1) was > 100 µM (inactive) and the GI50 (U-251) was > 100 µM (inactive). The GI50 (DLD-1) was 51.6 µM (inactive), the GI50 (Malme-3M) was > 100 µM (inactive) and the GI50 (SR) was 91.6 µM (inactive). The GI50 (TK-10) was > 100 µM (inactive), the GI50 (EKVX) was 46.8 µM (inactive) and the GI50 (COLO 205) was > 100 µM (inactive). For the same compound, the GI50 (OVCAR-3) was 31.8 µM (inactive), the GI50 (KM-20L2) was > 100 µM (inactive) and the GI50 (K562) was 32.7 µM (inactive). The GI50 (DMS-114) was > 100 µM (inactive), the GI50 (HCT-15) was 52.5 µM and the GI50 (SNB-78) was > 100 µM (inactive). For the same compound, the GI50 (SW-620) was > 100 µM (inactive), the GI50 (RPMI-8226) was 40.7 µM (inactive) and the GI50 (SN12C) was > 100 µM (inactive). For the same compound, the GI50 (HCT-116) was 42 µM (inactive), the GI50 (NCI-H460) was > 100 µM (inactive) and the GI50 (HT-29) was 61.7 µM (inactive). For the same compound, the GI50 (HL-60) was 80 µM (inactive), the GI50 (LOX IMVI) was 40.8 µM (inactive) and the GI50 (786-0) was > 100 µM (inactive). The GI50 (M19-MEL) was > 100 µM (inactive), the GI50 (OVCAR-4) was 49.5 µM (inactive) and the GI50 (CCRF-CEM) was 87.7 µM (inactive). The GI50 (NCI-H522) was 35 µM (inactive), the GI50 (XF498) was 28.2 µM (inactive) and the GI50 (UO-31) was > 100 µM (inactive). The GI50 (LXFL 529) was 53.2 µM (inactive), the GI50 (SK-MEL-28) was > 100 µM (inactive) and the GI50 (MOLT-4) was 48.6 µM (inactive). The GI50 (RXF 393) was 92.3 µM (inactive), the GI50 (NCI-H226) was > 100 µM (inactive) and the GI50 (UACC-257) was > 100 µM (inactive). For the same compound, the GI50 (A498) was > 100 µM (inactive), the GI50 (SK-MEL-5) was 18.8 µM (inactive) and the GI50 (ACHN) was > 100 µM (inactive). The GI50 (A549) was > 100 µM (inactive), the GI50 (HCC 2998) was > 100 µM (inactive) and the GI50 (NCI-H23) was 61 µM (inactive). For the same compound, the GI50 (SF-268) was > 100 µM (inactive), the GI50 (OVCAR-8) was > 100 µM (inactive) and the GI50 (OVCAR-5) was > 100 µM (inactive). The GI50 (SF-295) was > 100 µM (inactive), the GI50 (KM12) was > 100 µM (inactive) and the GI50 (SNB-19) was > 100 µM (inactive).

From ChEMBL document CHEMBL1201862, “PubChem BioAssay data set” (2004)
